Key:
[1] = system: Wnt activity (Sp5-Luc reporter, SW480 colon carcinoma cells); assay: Sp5-Luc reporter gene screening assay for Wnt activity in SW480 cells; type: cell-based; conditions: Homo sapiens; for EC50: Sp5-Luc reporter, SW480 cells, 36 to 48 hours; for inhibition at 10 µM: SW480, read-out: percent inhibition at 10 μM
Excerpt: The screening assay for Wnt activity is described as follows. Reporter cell lines can be generated by stably transducing cancer cell lines (e.g., colon cancer) or primary cells (e.g., IEC-6 intestinal cells) with a lentiviral construct that includes a Wnt-responsive promoter driving expression of the firefly luciferase gene.
SW480 colon carcinoma cells were transduced with a lentiviral vector expressing luciferase with a human Sp5 promoter consisting of a sequence of eight TCF/LEF binding sites. SW480 cells stably expressing the Sp5-Luc reporter gene and a hygromycin resistance gene were selected by treatment with 150 μg/mL of hygromycin for 7 days. These stably transduced SW480 cells were expanded in cell culture and used for all further screening activities. […] For Sp5-Luc reporter gene assays, the cells were plated at 4,000 cells/well in 384-well plates with a DMEM medium containing 1% fetal bovine serum, and 1% Penicillin-Streptomycin and incubated for 36 to 48 hours at 37° C. and 5% CO2. Following incubation, 15 μl of BriteLite Plus luminescence reagent (Perkin Elmer) was added to each well of the 384-well assay plates. The plates were placed on an orbital shaker for 2 min and then luminescence was quantified using the Envision (Perkin Elmer) plate reader. Readings were normalized to DMSO only treated cells, and normalized activities were utilized for EC50 calculations using the dose-response log (inhibitor) vs. response-variable slope (four parameters) nonlinear regression feature available in GraphPad Prism 5.0 (or Dotmatics).

[2] = biological target: recombinant DYRK1A kinase (Homo sapiens (Human), UniProt Q13627); assay: DYRK1A kinase assay (Ser/Thr 18 peptide Z-lyte, FRET); type: biochemical; conditions: 30 μM ATP, one hour at room temperature, read-out: EC50 (μM) (IC50 per method)
Excerpt: Representative compounds were screened using the assay procedure for DYRK1A kinase activity as described below.
The DYRK1A kinase assay was run using the Ser/Thr 18 peptide Z-lyte assay kit according to manufacturer's instructions (Life Technologies—a Division of Thermo-Fisher). This is a non-radioactive assay using fluorescence resonance energy transfer (FRET) between coumarin and fluorescein to detect kinase activity which is represented as a ratio of coumarin emission/fluorescein emission.
Briefly, recombinant DYRK1A kinase, ATP and Ser/Thr peptide 18 were prepared in 1× Kinase buffer to final concentrations of 0.19 μg/mL, 30 μM, and 4 μM respectively. The mixture was allowed to incubate with the representative compounds for one hour at room temperature. All reactions were performed in duplicate. Unphosphorylated (“0% Control”) and phosphorylated (“100% control”) forms of Ser/Thr 18 served as control reactions. Additionally, an 11-point dose-response curve of Staurosporine (1 uM top) was run to serve as a positive compound control.
After incubation, Development Reagent A was diluted in Development Buffer then added to the reaction and allowed to further incubate for one hour at room temperature. The plate was read at Ex 400 Em 455 to detect the coumarin signal and Ex 400 Em 520 to measure the signal (EnVision Multilabel Plate Reader, PerkinElmer).
The Emission ratio (Em) was calculated as a ratio of the coumarin (C) emission signal (at 445 nm)/Fluorescein (F) emission signal (at 520 nm). The percent phosphorylation was then calculated using the following formula: [1−((Em ratio×F100%)−C100%)/((C0%−C100%)+(Em ratio×(F100%−F0%)))].

[3] = system: SW480 colon carcinoma cells; assay: Cell viability assay (CellTiter-Glo) in SW480 cells; type: cell-based; conditions: Homo sapiens; for EC50: 96 h, SW480 cell viability, four days, CellTiter-Glo; for inhibition at 10 µM: SW480, read-out: percent inhibition at 10 μM
Protocol: Representative compounds were screened using the assay procedure to assess the effect on cell viability as described below.
SW480 colon carcinoma cells were transduced with a lentiviral vector expressing luciferase with a human Sp5 promoter consisting of a sequence of eight TCF/LEF binding sites. SW480 cells stably expressing the Sp5-Luc reporter gene and a hygromycin resistance gene were selected by treatment with 150 μg/mL of hygromycin for 7 days. These stably transduced SW480 cells were expanded in cell culture and used for all further screening activities.
For the Cell Viability Assays, the cells were plated at 2,000 cells/well in 384-well plates with a DMEM medium containing 1% fetal bovine serum, and 1% Penicillin-Streptomycin and incubated for […] at 37° C. and 5% CO2. Eight replicates of DMSO-treated cells served as controls and cells treated with compound were performed in duplicate.
After incubation, 10 μL of CellTiter-Glo (Promega) was added to each well allowed to incubate for approximately 12 minutes. This reagent “results in cell lysis and generation of a luminescent signal proportional to the amount of ATP present. The amount of ATP is directly proportional to the number of cells present in culture, in agreement with previous reports. The CellTiter-Glo Assay generates a “glow-type” luminescent signal, produced by the luciferase reaction (Promega.com)”.

[4] = system: primary human mesenchymal stem cells (hMSCs); assay: Chondrogenesis induction in hMSCs (Rhodamine B staining intensity, EC50); type: cell-based; conditions: 6 days, Rhodamine B staining intensity of nodules
Excerpt: Representative compounds were screened using primary human mesenchymal stem cells (hMSCs) to determine their ability to induce chondrogenesis (process by which cartilage is developed).
Primary human mesenchymal stem cells (hMSCs) were purchased from Lonza (Walkersville, Md.) and expanded in Mesenchymal Stem Cell Growth Media (Lonza). Cells between passage 2 and 4 were used for the experiments.
To image chondrogenic nodules, the cells were fixed using 4% formaldehyde (Electron Microscopy Sciences), and stained with 2 μg/mL Rhodamine B (Sigma-Aldrich) and 20 μM Nile Red (Sigma-Aldrich) [Johnson K., et. al, A Stem Cell-Based Approach to Cartilage Repair, Science, (2012), 336(6082). […] Rhodamine B staining intensity of nodules in each well was normalized to the average of 3 DMSO treated wells on the same plate using Excel (Microsoft Inc.). The normalized averages (fold change over DMSO) of 3 replicate wells for each compound concentration were calculated. EC50 values were calculated using non-linear regression curve fitting in Prism 8 (Graphpad Inc.). Due to solubility limitations of some of the compounds, curve fitting was incomplete, and the highest observed activity was extrapolated to the insoluble doses for accurate EC50 determinations.
EC50 values are reported. Further, using TGF-β3 as a positive control, the concentration of representative compounds required to induce equivalent levels of chondrogenesis is reported. In addition, the maximum activity of each compound and the respective dose that each compound reached maximum chondrogenesis activity is reported.

c1cc2cc(c1)-c1cncc3[nH]c(nc13)-c1n[nH]c3ccc(cc13)-c1cncc(c1)CNC2 [Compound 8, (Z)-2^3H,3H-6-Aza-2(7,2)-imidazo[4,5-c]pyridina-3(3,5)-indazola-4(3,5)-pyridina-1(1,3)-benzenacycloheptaphane]
EC50 [1]: 42 nM
IC50 [2]: 0.003 µM
EC50 [3]: 49 nM
EC50 [4]: 206 nM

O=C1CCc2cccc(c2)-c2cncc3[nH]c(nc23)-c2n[nH]c3ccc(cc23)-c2cncc(c2)N1 [Compound 3, (Z)-2^3H,3^1H-5-Aza-2(7,2)-imidazo[4,5-c]pyridina-3 (3,5)-indazola-4(3,5)-pyridina-1(1,3)-benzenacyclooctaphan-6-one]
EC50 [1]: 52 nM
IC50 [2]: 0.01 µM
EC50 [3]: 2760 nM
EC50 [4]: 28 nM

CN1CCCn2cc(nn2)-c2cncc3[nH]c(nc23)-c2n[nH]c3ccc(cc23)-c2cncc(c2)C1 [Compound 45, (1^4Z,2^1Z)-6-Methyl-1 ^1H,2^3H,3^1H-6-aza-2(7,2)-imidazo[4,5-c]pyridina-3(3,5)-indazola-4(3,5)-pyridina-1(4,1)-triazolacyclononaphane]
EC50 [1]: 338 nM
IC50 [2]: 0.004 µM
EC50 [3]: > 10000 nM
inhibition at 10 µM [3]: 44.1%
EC50 [4]: 22 nM

O=C1CCc2cccc(c2)-c2cncc(c2)NC(=O)c2n[nH]c3ccc(cc23)-c2cncc(c2)CN1 [Compound 97, 2^1H-4,10-diaza-2(5,3)-indazola-1,5(3,5)-dipyridina-6(1,3)-benzenacycloundecaphane-3,9-dione]
inhibition at 10 µM [1]: 22.2%
EC50 [1]: > 10000 nM
IC50 [2]: 0.009 µM
EC50 [3]: > 10000 nM
inhibition at 10 µM [3]: 25%
EC50 [4]: 69 nM

O=C1CCc2cccc(c2)-c2cccc3[nH]c(nc23)-c2n[nH]c3ccc(nc23)-c2cncc(c2)N1 [Compound 7, (Z)-2^1H,3^1H-8-Aza-2(5,3)-pyrazolo[4,3-b]pyridina-3 (2,4)-benzo[d]imidazola-1(3,5)-pyridina-4(1,3)-benzenacyclooctaphan-7-one]
EC50 [1]: 437 nM
IC50 [2]: > 10 µM
EC50 [3]: 455 nM
EC50 [4]: 22 nM

O=C1NC2CCC(CC2)NCc2cncc(c2)-c2ccc3[nH]nc(c3c2)-c2nc3c1cccc3[nH]2 [Compound 64, (6^1s,6^4s,Z)-1^1H,2^1H-5,7-diaza-1 (2,4),2(3,5)-dibenzo[d]imidazola-3(3,5)-pyridina-6(1,4)-cyclohexanacyclooctaphan-8-one]
inhibition at 10 µM [1]: 47.4%
EC50 [1]: > 10000 nM
IC50 [2]: 0.448 µM
EC50 [3]: > 10000 nM
inhibition at 10 µM [3]: 15.8%
EC50 [4]: 147 nM

O=C1CCc2cccc(c2)-c2cccc3[nH]c(nc23)-c2n[nH]c3ccc(cc23)-c2cncc(c2)N1 [Compound 1]
EC50 [1]: 22 nM
IC50 [2]: 0.266 µM
EC50 [3]: 94 nM
EC50 [4]: 12 nM

CN1CCCCN(C)c2nccc3[nH]c(nc23)-c2n[nH]c3ccc(cc23)-c2cncc(c2)C1 [Compound 51, (Z)-5,10-Dimethyl-1H,2^1H-5,10-diaza-1(2,4)-imidazo[4,5-c]pyridina-2(3,5)-indazola-3(3,5)-pyridinacyclodecaphane]
EC50 [1]: 577 nM
IC50 [2]: 0.002 µM
EC50 [3]: 515 nM
EC50 [4]: 93 nM

Cn1ncc2c1CNCc1cccc(c1)-c1cccc3[nH]c(nc13)-c1n[nH]c3ccc-2cc13 [Compound 15, (Z)-Methyl-1^1H,2^1H,3^1H-6-aza-2(5,3),3 (2,4)-diindazola-1 (4,5)-pyrazola-4(1,3)-benzenacycloheptaphane]
EC50 [1]: 59 nM
IC50 [2]: 0.111 µM
EC50 [3]: 118 nM
EC50 [4]: 51 nM

O=C1CCc2cccc(c2)-c2nccc3[nH]c(nc23)-c2n[nH]c3ccc(cc23)-c2cncc(c2)N1 [Compound 2, (Z)-2^1H,3^1H-5-Aza-2(4,2)-imidazo[4,5-c]pyridina-3 (3,5)-indazola-4(3,5)-pyridina-1(1,3)-benzenacyclooctaphan-6-one]
EC50 [1]: 22 nM
IC50 [2]: 0.006 µM
EC50 [3]: 80 nM
EC50 [4]: 58 nM

CN1Cc2cccc(c2)-c2cccc3[nH]c(nc23)-c2n[nH]c3ccc(cc23)-c2cnn(C)c2C1 [Compound 29]
EC50 [1]: 82 nM
IC50 [2]: 0.412 µM
EC50 [3]: 170 nM
EC50 [4]: 69 nM

c1cc2cc(c1)-c1cccc3[nH]c(nc13)-c1n[nH]c3ccc(cc13)-c1cncc(c1)OCCC2 [Compound 57]
EC50 [1]: 475 nM
IC50 [2]: > 10 µM
EC50 [3]: 670 nM
EC50 [4]: 25 nM

O=C1COc2cccc(c2)-c2cncc3[nH]c(nc23)-c2n[nH]c3ccc(cc23)-c2cncc(c2)N1 [Compound 38, (Z)-2^3H,3^1H-8-Oxa-5-aza-2(7,2)-imidazo[4,5-c]pyridina-3(3,5)-indazola-4(3,5)-pyridina-1(1,3)-benzenacyclooctaphan-6-one]
EC50 [1]: 87 nM
IC50 [2]: 0.005 µM
EC50 [3]: 415 nM
EC50 [4]: 36 nM

O=C1CCc2cccc(c2)-c2cccc3[nH]c(nc23)-c2n[nH]c3ncc(cc23)-c2cncc(c2)N1 [Compound 5, (Z)-2^1H,3^1H-8-Aza-2(5,3)-pyrazolo[3,4-b]pyridina-3(2,4)-benzo[d]imidazola-1(3,5)-pyridina-4(1,3)-benzenacyclooctaphan-7-one]
EC50 [1]: 124 nM
IC50 [2]: 0.709 µM
EC50 [3]: 407 nM
EC50 [4]: 213 nM

CN1Cc2cncc(c2)-c2ccc3[nH]nc(c3c2)-c2nc3c(cccc3[nH]2)-c2cccc(c2)C1 [Compound 22, (Z)-6-Methyl-2^1H,3^1H-6-aza-2(5,3),3(2,4)-diindazola-1(3,5)-pyridina-4(1,3)-benzenacycloheptaphane]
EC50 [1]: 10 nM
IC50 [2]: 0.068 µM
EC50 [3]: 14 nM
EC50 [4]: 796 nM

O=C1CCc2cccc(c2)-c2cccc3[nH]c(nc23)-c2n[nH]c3cnc(cc23)-c2cncc(c2)N1 [Compound 6, (Z)-2^1H,3^1H-8-Aza-2(5,3)-pyrazolo[3,4-c]pyridina-3(2,4)-benzo[d]imidazola-1(3,5)-pyridina-4(1,3)-benzenacyclooctaphan-7-one]
EC50 [1]: 9 nM
IC50 [2]: 0.096 µM
EC50 [3]: 142 nM
EC50 [4]: 16 nM
